Test results published in the SangsterLogP compilation.

Columns and labels:
[1] = not given; remark: listed apart in the source
[2] = method code SF-AS, from DOI: 10.1021/jm00234a001, PMID: 1003419
[3] = method code SF-AS, from DOI: 10.1080/00021369.1974.10861343
[4] = method code SF-C, from DOI: 10.1038/194178b0
[5] = method code SF-HPLC, from DOI: 10.1016/0378-5173(87)90096-2; details: pH 8.0
[6] = method code SF-AS, from M. Kuchar, J. Tomkova, V. Rejholec, & O. Roubinek. (1992). Some problems of the chromatographic evaluation of lipophicity. In Kuchar, M. (Ed.) QSAR in Design of Bioactive Compounds (pp. 65-81). Prous …; details: pH 3.4
[7] = not given; remark: listed apart in the source
[8] = method code SF-AS, from DOI: 10.1002/ps.2780370107; details: pH 0.0
[9] = method code SF-HPLC, from DOI: 10.1002/jps.2600831027, PMID: 7884677; details: pH 2.0
[10] = method code SF-AS, from DOI: 10.1021/jf60177a051
[11] = method code SF-AS, from DOI: 10.1093/chemse/13.4.619; details: pH 7.2
[12] = method code SF-AS, from DOI: 10.1021/bi00730a008, PMID: 4688860
[13] = not given; remark: listed apart in the source
[14] = not given; remark: listed apart in the source
[15] = method code SF-AS, from DOI: 10.1016/0378-5173(90)90042-3
[16] = method code SF-AS, from PMID: 8197227; details: pH 7.4
[17] = method code SF-AS, from DOI: 10.1111/j.1476-5381.1975.tb07619.x, PMID: 1182339; details: pH 10.0
[18] = method code SF-GLC, from DOI: 10.1016/s0021-9673(01)83612-8; details: pH 13.0
[19] = not given; remark: listed apart in the source
[20] = not given; remark: listed apart in the source
[21] = method code SF-AS, from DOI: 10.1021/je700381u; details: pH 0.0
[22] = not given; remark: listed apart in the source
[23] = not given; remark: listed apart in the source
[24] = from Pratesi, P.; Villa, L.; Ferri, V.; DeMicheli, C.; Grana, E.; Grieco, C.; Silipo, C.; Vittoria, A. (1979). On the additive-constitutive properties of substituent hydrophobic parameters in a set of …

For `c1cc2cccc3c4cccc5cccc(c(c1)c23)c54`, the logP was 6.53.
In the case of `CCOP(=S)(OCC)Oc1cc(-c2ccccc2)on1`, the logP [1] is reported as 4.58.
`c1ccc2c(c1)ccc1c3ccccc3ccc21` gave a logP of 6.01.
`CC(=O)Nc1c(I)c(C(=O)N[C@H]2C(O)O[C@H](CO)[C@@H](O)[C@@H]2O)c(I)c(N(C)C(C)=O)c1I` (stereo partly drawn) showed a logP [2] of -1.89.
`CCOC(=O)C=COc1ccccc1` showed a logP [3] of 3.18.
`Cc1cccc(OCC(=O)O)c1` gave a logP [4] of 1.88.
For `O=C(Nc1ccccc1)N(Cc1ccc(Cl)cc1)C1CCCC1`, the logP [1] was 4.7.
With `NC(=O)Cc1ccccn1` the logD [5] was -0.64.
In the case of `O=C(O)CCc1ccc(OCc2ccccc2)c(Cl)c1`, the logD [6] is reported as 3.89.
`CNC(=O)c1c(I)c(NC(C)=O)c(I)c(O[C@@H]2O[C@H](CO)[C@@H](O)[C@H](O)[C@H]2O)c1I` gave a logP [2] of -1.49.
`Oc1c(I)cc(I)c(O)c1I` showed a logP [2] of 1.68.
For `COc1cccc(N)c1`, the logP [7] was 1.11.
With `CCOP(=O)(O)Cc1ccccc1` the logD [8] was 0.81.
In the case of `O=C(O)c1ccc(CCl)cc1`, the logD [9] is reported as 2.12.
With `CC1=C(C(=O)Nc2ccccc2)S(=O)CCO1` (stereo not drawn) the logP [10] was 0.64.
In the case of `CC(=O)c1ccncc1`, the logD [11] is reported as 0.4.
Molecule `O=C(O)c1ccccc1O` has a logP of 1.75.
Work on `COc1cccc(NC=O)c1` yielded a logP [12] of 1.25.
Molecule `O=C(O)COc1ccc(Cl)cc1Cl` has a logP [13] of 2.71.
For `CC1(C)C(/C=C(\Cl)C(F)(F)F)C1C(=O)OC(C#N)c1cccc(Oc2ccccc2)c1` (stereo not drawn), the logP [14] was 6.02.
Molecule `CCOP(=O)(O)Cc1ccc(S(C)(=O)=O)cc1` has a logD [8] of -0.4.
`CCCCCOC(=O)c1cc(=O)[nH]c(=O)[nH]1` gave a logP [15] of 1.62.
`NC(=S)NNC(=O)c1ccc2c(c1)OCO2` showed a logD [16] of 0.21.
Work on `N=C(N)NC(=O)Nc1ccc(Cl)c(Cl)c1` yielded a logD [17] of 2.39.
Work on `COc1cc(NC(=O)NC(=N)N)ccc1C#N` yielded a logD [17] of 1.28.
Molecule `NC1CCc2ccccc2C1` (stereo not drawn) has a logD [18] of 2.08.
In the case of `CC(=O)c1cccc(OCC(=O)O)c1`, the logP [4] is reported as 1.34.
With `O=C(O)CCCCCCCCCCCCCCCOC(=O)Oc1ccccc1` the logP [19] was 4.67.
For `COC(=O)c1cc(=O)[nH]c(=O)[nH]1`, the logP [15] was 0.63.
For `O=C(O)c1ccccc1C(=O)O`, the logP [13] was 0.87.
In the case of `O=C(NNc1nccs1)c1ccc2c(c1)OCO2`, the logD [16] is reported as 1.06.
`CS(=O)(=O)NCCN1CCc2cccc(Cl)c2CC1` gave a logP [20] of 2.51.
`CNCCCCc1ccccc1` gave a logD [18] of 2.76.
With `COP(=S)(OC)Oc1c(Cl)cc(C)cc1Cl` the logP [1] was 4.36.
Molecule `O=C(O)CCCCCCCOC(=O)Oc1ccccc1` has a logP [19] of 3.39.
Molecule `O=C(O)c1cc(F)ccc1Br` has a logD [21] of 2.21.
With `O=C(O)Cc1ccc(C(=O)O)cc1` the logD [9] was 1.24.
`NC(=O)Cc1ccncc1` gave a logD [5] of -0.59.
Molecule `CCOP(=O)(O)Cc1ccc(-c2ccccc2)cc1` has a logD [8] of 2.37.
With `OCc1ccc(F)cc1` the logP [22] was 1.36.
Molecule `NC(=O)CCCc1ccccn1` has a logD [5] of 0.06.
In the case of `NC(=O)Cc1cccnc1`, the logD [5] is reported as -0.59.
With `CCOC(=O)c1cc(=O)[nH]c(=O)[nH]1` the logP [15] was 0.68.
`Cc1cccc(C)c1O` showed a logP [7] of 2.38.
`O=C(c1ccccc1)c1ccncc1` gave a logD [11] of 1.9.
Work on `Cc1ccccc1CCN` yielded a logP [23] of 1.6.
`CC[C@H]1CCC[C@H](O[C@H]2CC[C@H](N(C)C)[C@@H](C)O2)[C@@H](C)C(=O)C2=C[C@@H]3[C@@H](C=C(C)[C@@H]4C[C@@H](O[C@@H]5O[C@@H](C)[C@H](OC)[C@@H](OC)[C@H]5OC)C[C@@H]34)[C@@H]2CC(=O)O1` showed a logP [13] of 4.92.
In the case of `C(=NNc1nccs1)c1ccc2c(c1)OCO2`, the logD [16] is reported as 1.5.
`CNS(=O)(=O)c1ccccc1` gave a logP [24] of 0.92.
For `Oc1ccc(C2CCCCC2)cc1`, the logP [24] was 4.22.
With `Cc1ccc(NC=O)cc1` the logP [12] was 1.61.
Molecule `CC1=C(C(=O)O)SCCO1` has a logP [10] of 0.04.
`OCCCNc1ccccc1` gave a logP [23] of 0.57.
